The record followed here is patent US11224223B2, “Feeding deterrence of pests such as Hemiptera, Lepidoptera and Coleoptera” (BEDOUKIAN RESEARCH, INC., priority 2012, dated 2022).

Format in all cases: in vivo
One data set relates to Codling Moth larvae. As to the kind of experiment: Repellency as feeding deterrence and mortality in Codling Moth larvae on treated media. The following applies: compound at 3.5% in a 57% Ethanol:43% water solution; for Repellency at 24 hours: first instar larva, control 8%. Here is the method: Another test was designed to measure the repellency as feeding deterrence in Codling Moth larvae. The treatment was applied to the surface of a proprietary laboratory media in a tray with wells for each compound. The media was allowed to dry for 30-60 minutes so that larvae were not exposed to it as a liquid. One first instar codling moth larva was then placed on the treated media. The cover film was placed on the tray to prevent escapes. Ten additional replicates treated with a 57% ethanol solution were prepared to serve as controls. […] After the 24 hour reading, the larvae were extracted from the media to record any mortality.
Mortality observations were also made for the above protocol. The control was the 57% ethanol:43% water solution.

A further data set relates to granary weevils. In words: Granary weevil test on treated wheat kernels. The conditions noted are these: 5% in isopropyl alcohol, 3 week period. Here is the method: Ten replicates of 30 kernels of wheat were immersed into the test compound and allowed to dry for 24 hours. The grains were then transferred to a test container, and 10 granary weevils were released. Test containers were secured and left for a 3 week period. At the end of this time, the wheat grains were examined for developing larvae and damage by larvae. […] Ten additional replicates treated with isopropyl alcohol were prepared to serve as controls.

For another data set, the system named is psyllids. As to the kind of experiment: Psyllid repellency on potato choice assays. The following applies: 3% compound; potato plants; 100 psyllids per cage; control 50/50.
For another data set, the system named is sharpshooters. As to the kind of experiment: Leafhopper repellency on citrus choice assays. The following applies: 3% compound; citrus seedlings; 100 sharpshooters per cage; control 50/50.
The test system of data set [1] is Euschistus heros-Neotropical Brown Stink Bugs. As to the kind of experiment: Stink bug feeding damage on soybean pods. The following applies: 3% compound, soybean plants at R6 stage, 48 hours.
In the next data set the test system is Popillia japonica. In words: Japanese beetle feeding damage on basil. The conditions noted are these: 3% compound; basil leaf disks; adult beetle; 24 h.
The subject of a further data set is Dermestid spp. In words: Dermestid beetle feeding damage on silk fabric. The following applies: 3% compound; undyed silk disks; late instar larvae; 1 week.
A further data set deals with saw tooth grain beetles. As to the kind of experiment: Repellency of test compounds on grain beetles, treated corn kernels. The conditions noted are these: 5% in isopropyl alcohol, 3 week period. The method, then: Ten replicates of 30 kernels of corn are immersed into the test compound and allowed to dry for 24 hours. The kernels are then transferred to a test container, and 10 saw tooth grain beetles are released. Test containers are secured and left for a 3 week period. At the end of this time, the […] grains are examined for feeding damage. […] Ten additional replicates treated with isopropyl alcohol are prepared to serve as controls.

The test system of the next data set is Plodia interpunctella. In words: Feeding repellent assay for Indian meal moth larva on treated rice. The following applies: 10% compound in a 5% Ethanol:95% water solution, third instar larvae, 1 week.

Turning to `CC/C(C)=C/CC/C(C)=C/CC1CCCC1=O` (stereo not drawn) [Methyl Apritone], in the data set on Codling Moth larvae, the “Increased Mortality over Control Mortality at 24 hours” value came to 95%. Further, the “Repellency at 24 hours” value in the data set on Codling Moth larvae was found to be 100%. The figures for the “Increased Repellency vs. Control Repellency” value in the data set with granary weevils and with saw tooth grain beetles were 11% and 10%, respectively. In addition, the “Number of Psyllids Choosing each Treatment: Treated” value in the data set with psyllids and in the data set on sharpshooters was 30 each time. Moreover, the “Number of Psyllids Choosing each Treatment: Untreated” value in the data set with psyllids and with sharpshooters was 70 throughout. Besides, the “% Antifeedent Activity” value is given as 60% in [1] and 70% with Plodia interpunctella. For the same compound, the “% Repellency” value with Popillia japonica and with Dermestid spp. was 15% in each case.

As to `CCCCCC1C(=O)CCC1CC(=O)OCCC` (stereo not drawn) [Propyl Dihydrojasmonate], the “Increased Mortality over Control Mortality at 24 hours” value in the data set with Codling Moth larvae came out at 18%. Further, the “Repellency at 24 hours” value in the data set on Codling Moth larvae turned out to be 59%. For the same compound, the “Increased Repellency vs. Control Repellency” value in the data set on granary weevils is given as 8%; in the data set on saw tooth grain beetles, 10%. Also, the “Number of Psyllids Choosing each Treatment: Treated” value with psyllids and with sharpshooters was 30 throughout. Moreover, the “Number of Psyllids Choosing each Treatment: Untreated” value in the data set with psyllids and in the data set on sharpshooters was 70 in each case. Also, the “% Antifeedent Activity” value was 100% in data set [1] and 60% in the data set with Plodia interpunctella. Besides, the “% Repellency” value in the data set with Popillia japonica and with Dermestid spp. was 15% in each case.
